For orientation: IC50 means the concentration that inhibits the measured activity by half.

Chain of human STING WT protein (Q86WV6 whole entry H232R): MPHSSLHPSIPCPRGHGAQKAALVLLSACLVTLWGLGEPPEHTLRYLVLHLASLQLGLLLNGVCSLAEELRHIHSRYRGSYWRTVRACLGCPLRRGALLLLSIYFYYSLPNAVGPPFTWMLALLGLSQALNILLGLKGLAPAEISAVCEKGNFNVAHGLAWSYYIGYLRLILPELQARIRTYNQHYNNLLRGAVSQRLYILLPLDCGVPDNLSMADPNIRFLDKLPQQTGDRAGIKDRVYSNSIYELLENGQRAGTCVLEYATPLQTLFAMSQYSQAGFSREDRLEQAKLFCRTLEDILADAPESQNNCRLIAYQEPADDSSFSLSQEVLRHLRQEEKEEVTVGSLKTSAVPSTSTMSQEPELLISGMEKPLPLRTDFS

The target in the assay is human STING WT protein (Homo sapiens, UniProt Q86WV6). As to the kind of experiment: Human STING WT binding assay (Cisbio HTRF). The note with it: HTRF competition with STING WT ligand d2, 6 His-tagged human STING WT, 3 hours at RT; read-out: hSTING WT binding IC50. As to the method:
Example A: Human STING WT Binding Assay
Cisbio Bioassays' human STING WT binding assay (#64 BDSTGPEG & 64 BDSTGPEH, Cisbio) is for quantitative measurement of human STING WT ligand using HTRF® technology.
Negative control: Dispense 5 μL of diluent into each negative control well. Standard: Dispense 5 μL of each Human STING WT Standard 2′3′-cGAMP (Std 0-Std 7) into each standard well. Compound: Dispense 5 μL of compound into each compound well.
Negative control: Add 5 μL of detection buffer to all wells. Other wells: Add 5 μL of human STING WT protein 6 His-tagged protein to all wells.
Add 10 μL of premixed STING WT ligand d2 reagent and 6 His Tb antibody working solution to all wells.
Seal the plate and incubate 3 hours at RT or at Over Night if necessary.
Remove the plate sealer and read on an HTRF® compatible reader (PerkinElmer, USA). Results were analyzed with a two-wavelength signal ratio:intensity (665 nm)/intensity (620 nm).
Fit the data in GraphPad to obtain IC50 values using equation (2)
Y=Bottom+(Top−Bottom)/(1+10^((Log IC50−X)*Hill Slope)) Equation (2)
Y is HTRF Ratio and X is compound concentration.
As to `COc1cc2c(cc1OCCCOc1c(OC)cc3c(c1F)CN(C(=O)CCC(=O)O)C3)CN(C(=O)CCC(=O)O)C2` [Example 4, 4-(5-(3-((2-(3-carboxypropanoyl)-4-fluoro-6-methoxyisoindolin-5-yl)oxy)propoxy)-6-methoxyisoindolin-2-yl)-4-oxobutanoic Acid], the IC50 came to 0.68 nM.
In the case of `COc1cc2c(cc1OCCCOc1cc3c(c(F)c1OC)CN(C(=O)CCC(=O)O)C3)CN(C(=O)CCC(=O)O)C2` [Example 2, 4-(6-(3-((2-(3-carboxypropanoyl)-6-methoxyisoindolin-5-yl)oxy)propoxy)-4-fluoro-5-methoxyisoindolin-2-yl)-4-oxobutanoic Acid], the IC50 was 33.7 nM.
The same measure for `C=C(COc1cc2c(cc1OC)CN(C(=O)CCC(=O)O)C2)COc1cc2c(cc1OC)CN(C(=O)CCC(=O)O)C2` [Example 10, 4,4′-(((2-methylenepropane-1,3-diyl)bis(oxy))bis(6-methoxyisoindoline-5,2-diyl))bis(4-oxobutanoic acid)]: 150 nM; for `COc1cc2c(cc1OCCCOc1cc3c(cc1OC)CN(C(=O)CCC(=O)O)C3)CN(C(=O)CCC(=O)O)C2` [Example 1, 4,4′-((propane-1,3-diylbis(oxy))bis(6-methoxyisoindoline-5,2-diyl))bis(4-oxobutanoic Acid)]: below 0.1 nM.
The same measure for `COc1cc2c(c(F)c1OCCCOc1c(OC)cc3c(c1Cl)CN(C(=O)CCC(=O)O)C3)CN(C(=O)CCC(=O)O)C2` [Example 13, 4-(5-(3-((2-(3-carboxypropanoyl)-4-chloro-6-methoxyisoindolin-5-yl)oxy)propoxy)-4-fluoro-6-methoxyisoindolin-2-yl)-4-oxobutanoic acid]: 149 nM; for `COc1cc2c(cc1OCCCOc1cc3c(cc1OC)CN(C(=O)C[C@H](C)C(=O)O)C3)CN(C(=O)CCC(=O)O)C2` [Example 3, Sodium (S)-4-(5-(3-((2-(3-carboxylatopropanoyl)-6-methoxyisoindolin-5-yl)oxy)propoxy)-6-methoxyisoindolin-2-yl)-2-methyl-4-oxobutanoate]: 1.63 nM; for `COc1cc2c(nc1OCCCOc1nc3c(cc1OC)CN(C(=O)CCC(=O)O)C3)CN(C(=O)CCC(=O)O)C2` [Example 5, 4,4′-((propane-1,3-diylbis(oxy))bis(3-methoxy-5,7-dihydro-6H-pyrrolo[3,4-b]pyridine-2,6-diyl))bis(4-oxobutanoic Acid)]: 3.28 nM.
Consider `COc1cc2c(c(F)c1OCCCOc1c(OC)cc3c(c1F)CN(C(=O)CCC(=O)O)C3)CN(C(=O)CCC(=O)O)C2` [Example 9, 4,4′-((propane-1,3-diylbis(oxy))bis(4-fluoro-6-methoxyisoindoline-5,2-diyl))bis(4-oxobutanoic acid)], for which the IC50 was determined as 0.32 nM.
As for `COc1cc2c(cc1OCCCOc1cc3c(cc1OC)CN(C(=O)NCCC(=O)O)C3)CN(C(=O)CCC(=O)O)C2` [Example 14, 4-(5-(3-((2-((2-carboxyethyl)carbamoyl)-6-methoxyisoindolin-5-yl)oxy)propoxy)-6-methoxyisoindolin-2-yl)-4-oxobutanoic acid], the IC50 turned out to be 144 nM.
